Counter-ions that a name gives are not always drawn.
Legend:
[1] = test system: 40 different bacterial species; test: Prestwick Chemical Library growth screen, whole panel (hits, anticommensal activity); assay type: cell-based, human gut isolates; details: for anticommensal activity in the screen (in words): 20 μM, 40 strains, FDR<0.01
[2] = test system: Clostridium perfringens (NT5032); assay type: cell-based; details: screen at 20 μM
[3] = test system: Clostridium difficile (NT5083); test: Prestwick Chemical Library growth screen (OD578 growth curves, AUC); assay type: cell-based; details: screen at 20 μM
[4] = test system: Bacteroides fragilis (ET) (NT5033); assay type: cell-based, Bacteroides fragilis enterotoxigenic; details: screen at 20 μM
[5] = test system: Bacteroides ovatus (NT5054); test: Prestwick Chemical Library growth screen (OD578 growth curves, AUC); assay type: cell-based; details: FIG. 8b, three biological replicates, 20 μM
[6] = number of species inhibited of 40 different bacterial species tested
[7] = number of the 40 bacterial species tested whose growth is inhibited, Table 7 broad-spectrum compounds
[8] = number of the 40 strains inhibited at 20 μM (FDR<0.01)

Compound `C[C@H]1O[C@H](O[C@H]2[C@H](O)[C@@H](O)[C@@H](O[C@H]3[C@H](O)[C@@H](O)C(O)O[C@@H]3CO)O[C@@H]2CO)[C@H](O)[C@@H](O)[C@@H]1N[C@H]1C=C(CO)[C@@H](O)[C@H](O)[C@H]1O` (stereo partly drawn) [Acarbose] has a n_hit [1, 6] of 6.

For `C=C1/C(=C\C=C2/CCC[C@]3(C)[C@@H]([C@H](C)CCCC(C)C)CC[C@@H]23)C[C@@H](O)C[C@@H]1O` [Alfacalcidol], the “selective inhibition of the growth of C. perfringens bacteria (in words)” value [2] was “selectively inhibiting the growth” and the n_hit [1, 6] was 7.

In the case of `CCCCc1oc2ccccc2c1C(=O)c1cc(I)c(OCCN(CC)CC)c(I)c1` [Amiodarone hydrochloride], the n_hit [1, 7] is reported as 10.

Compound `CCOC(=O)C1=C(COCCN)NC(C)=C(C(=O)OC)C1c1ccccc1Cl` (stereo not drawn) [Amlodipine] has a n_hit [1, 8] of 2.

`O=C1c2c(O)cccc2Cc2cccc(O)c21` [Anthralin] gave a n_hit [1, 7] of 11.

In the case of `C[C@@H](O[C@H]1OCCN(Cc2n[nH]c(=O)[nH]2)[C@H]1c1ccc(F)cc1)c1cc(C(F)(F)F)cc(C(F)(F)F)c1` [Aprepitant], the n_hit [1, 7] is reported as 10.

Work on `O=C1CCc2ccc(OCCCCN3CCN(c4cccc(Cl)c4Cl)CC3)cc2N1` [Aripiprazole] yielded a n_hit [1, 6] of 3.

Compound `COc1ccc(CCN2CCC(Nc3nc4ccccc4n3Cc3ccc(F)cc3)CC2)cc1` [Astemizole] has a n_hit [1, 7] of 10.

For `Nc1ncn(C2OC(CO)C(O)C2O)c(=O)n1` (stereo not drawn) [Azacytidine-5], the “selective inhibition of the growth of C. perfringens bacteria (in words)” value [2] was “selectively inhibiting the growth” and the n_hit [1, 6] was 1.

`Cn1cnc([N+](=O)[O-])c1Sc1ncnc2nc[nH]c12` [Azathioprine] was tested, and the “inhibition of the growth of C. difficile bacteria (in words)” value [3] was “effective in inhibiting the growth” and the n_hit [1, 8] was 7.

`CC(C)COCC(CN(Cc1ccccc1)c1ccccc1)N1CCCC1` (stereo not drawn) [Bepridil hydrochloride] was tested, and the n_hit [1, 7] was 14.

With `CC1(C)[C@@H](OC(=O)CCC(=O)O)CC[C@]2(C)[C@H]3C(=O)C=C4[C@@H]5C[C@@](C)(C(=O)O)CC[C@]5(C)CC[C@@]4(C)[C@]3(C)CC[C@@H]12` [Carbenoxolone disodium salt] the “inhibition of the growth of C. difficile bacteria (in words)” value [3] was “effective in inhibiting the growth” and the n_hit [1, 8] was 2.

In the case of `CN(C)CCCN1c2ccccc2Sc2ccc(Cl)cc21` [Chlorpromazine hydrochloride], the “selective inhibition of the growth of C. perfringens bacteria (in words)” value [2] is reported as “selectively inhibiting the growth” and the n_hit [1, 6] is reported as 6.

For `COCCOC(=O)C1=C(C)NC(C)=C(C(=O)OC/C=C/c2ccccc2)C1c1cccc([N+](=O)[O-])c1` (stereo not drawn) [Cilnidipine], the “inhibition of the growth of C. difficile bacteria (in words)” value [3] was “effective in inhibiting the growth”, the “selective inhibition of the growth of an enterotoxigenic strain of Bacteroides fragilis (in words)” value [4] was “selectively inhibiting the growth” and the n_hit [1, 8] was 5.

For `Clc1ccc(Cn2c(CN3CCCC3)nc3ccccc32)cc1` [Clemizole hydrochloride], the n_hit [1, 7] was 15.

For `CC(=O)Oc1cccc2c1C(=O)c1c(OC(C)=O)cc(C(=O)O)cc1C2=O` [Diacerein], the n_hit [1, 7] was 33 and the “effect on growth curves (normalized OD/AUC) of Bacteroides ovatus (in words)” value [5] was “almost completely inhibits the growth”.

For `O=c1oc2ccccc2c(O)c1Cc1c(O)c2ccccc2oc1=O` [Dicumarol], the n_hit [1, 7] was 10.

For `CCCCC(=O)O[C@H]1CC[C@H]2[C@@H]3CCc4cc(O)ccc4[C@H]3CC[C@]12C` [Estradiol Valerate], the n_hit [1, 7] was 11.

With `C=C(CC)C(=O)c1ccc(OCC(=O)O)c(Cl)c1Cl` [Ethacrynic acid] the “selective inhibition of the growth of C. perfringens bacteria (in words)” value [2] was “selectively inhibiting the growth”, the “selective inhibition of the growth of an enterotoxigenic strain of Bacteroides fragilis (in words)” value [4] was “selectively inhibiting the growth” and the n_hit [1, 6] was 6.

`CCN(CC)C(C)CN1c2ccccc2Sc2ccccc21` (stereo not drawn) [Ethopropazine hydrochloride] showed a n_hit [1, 7] of 11.

In the case of `CCOC(=O)/C=C(C)/C=C/C=C(C)/C=C/c1c(C)cc(OC)c(C)c1C` [Etretinate], the “selective inhibition of the growth of C. perfringens bacteria (in words)” value [2] is reported as “selectively inhibiting the growth” and the n_hit [1, 6] is reported as 1.

`CC(NCCC(c1ccccc1)c1ccccc1)c1ccccc1` (stereo not drawn) [Fendiline hydrochloride] was tested, and the “inhibition of the growth of C. difficile bacteria (in words)” value [3] was “effective in inhibiting the growth” and the n_hit [1, 8] was 8.

In the case of `O=C(O)Cc1sc(-c2ccccc2)nc1-c1ccc(Cl)cc1` [Fentiazac], the “inhibition of the growth of C. difficile bacteria (in words)” value [3] is reported as “effective in inhibiting the growth” and the n_hit [1, 8] is reported as 1.

`O=C(O)c1ccccc1Nc1cccc(C(F)(F)F)c1` [Flufenamic acid] was tested, and the n_hit [1, 6] was 4.

With `Nc1nc2ncc(CNc3ccc(C(=O)N[C@@H](CCC(=O)O)C(=O)O)cc3)nc2c(=O)[nH]1` [Folic acid] the n_hit [1, 6] was 2.

For `Nc1ccn([C@@H]2O[C@H](CO)[C@@H](O)C2(F)F)c(=O)n1` [Gemcitabine], the “selective inhibition of the growth of C. perfringens bacteria (in words)” value [2] was “selectively inhibiting the growth” and the n_hit [1, 6] was 2.

In the case of `COc1ccc2c(c1)C(=O)N(CCc1ccc(S(=O)(=O)NC(=O)NC3CCCCC3)cc1)C(=O)C2(C)C` [Gliquidone], the “inhibition of the growth of C. difficile bacteria (in words)” value [3] is reported as “effective in inhibiting the growth” and the n_hit [1, 8] is reported as 1.

With `COC1=C(OC)C(=O)C(CCCCCCCCCCO)=C(C)C1=O` [Idebenone] the “selective inhibition of the growth of C. perfringens bacteria (in words)” value [2] was “selectively inhibiting the growth” and the n_hit [1, 6] was 3.

`CCOC(=O)C1=C(C)NC(C)=C(C(=O)OCC)C1c1ccccc1/C=C/C(=O)OC(C)(C)C` [Lacidipine] was tested, and the “inhibition of the growth of C. difficile bacteria (in words)” value [3] was “effective in inhibiting the growth” and the n_hit [1, 8] was 6.

For `CCOC(=O)N1CCC(=C2c3ccc(Cl)cc3CCc3cccnc32)CC1` [Loratadine], the n_hit [1, 7] was 15.

For `Cc1ccc(Cl)c(Nc2ccccc2C(=O)O)c1Cl` [Meclofenamic acid], the “selective inhibition of the growth of an enterotoxigenic strain of Bacteroides fragilis (in words)” value [4] was “selectively inhibiting the growth”, the n_hit [1, 6] was 5 and the “effect on growth curves (normalized OD/AUC) of Bacteroides ovatus (in words)” value [5] was “just below the hit threshold”.

`Cc1cccc(CN2CCN(C(c3ccccc3)c3ccc(Cl)cc3)CC2)c1` (stereo not drawn) [Meclozine dihydrochloride] was tested, and the “inhibition of the growth of C. difficile bacteria (in words)” value [3] was “effective in inhibiting the growth” and the n_hit [1, 8] was 8.

`S=c1nc[nH]c2nc[nH]c12` [Mercaptopurine] was tested, and the “inhibition of the growth of C. difficile bacteria (in words)” value [3] was “effective in inhibiting the growth” and the n_hit [1, 8] was 4.

For `CSc1ccc2c(c1)C(N1CCN(C)CC1)Cc1ccccc1S2.O=C(O)/C=C\C(=O)O` (stereo not drawn) [Methiothepin maleate], the n_hit [1, 7] was 10.

`CN1CCCC(CC2c3ccccc3Sc3ccccc32)C1` (stereo not drawn) [Metixene hydrochloride] was tested, and the “selective inhibition of the growth of an enterotoxigenic strain of Bacteroides fragilis (in words)” value [4] was “selectively inhibiting the growth” and the n_hit [1, 6] was 9.

`CC#C[C@]1(O)CC[C@H]2[C@@H]3CCC4=CC(=O)CCC4=C3[C@@H](c3ccc(N(C)C)cc3)C[C@@]21C` [Mifepristone] was tested, and the “inhibition of the growth of C. difficile bacteria (in words)” value [3] was “effective in inhibiting the growth” and the n_hit [1, 8] was 3.

`C[C@@H]1C[C@H]2[C@@H]3CCC4=CC(=O)C=C[C@]4(C)[C@@]3(Cl)[C@@H](O)C[C@]2(C)[C@@]1(OC(=O)c1ccco1)C(=O)CCl` [Mometasone furoate] was tested, and the n_hit [1, 6] was 1.

In the case of `CC(C)(O)c1ccccc1CC[C@@H](SCC1(CC(=O)O)CC1)c1cccc(/C=C/c2ccc3ccc(Cl)cc3n2)c1` [Montelukast], the n_hit [1, 8] is reported as 8.

In the case of `CC(=O)O[C@H]1C(=O)[C@@]2(C)[C@H]([C@H](OC(=O)c3ccccc3)[C@]3(O)C[C@H](OC(=O)[C@H](O)[C@@H](NC(=O)c4ccccc4)c4ccccc4)C(C)=C1C3(C)C)[C@]1(OC(C)=O)CO[C@@H]1C[C@@H]2O` [Paclitaxel], the “selective inhibition of the growth of C. perfringens bacteria (in words)” value [2] is reported as “selectively inhibiting the growth” and the n_hit [1, 6] is reported as 1.

For `O=C1c2ccccc2C(=O)C1c1ccccc1` [Phenindione], the “selective inhibition of the growth of C. perfringens bacteria (in words)” value [2] was “selectively inhibiting the growth” and the n_hit [1, 6] was 1.

In the case of `CNCCCC1c2ccccc2C=Cc2ccccc21` [Protriptyline hydrochloride], the “selective inhibition of the growth of an enterotoxigenic strain of Bacteroides fragilis (in words)” value [4] is reported as “selectively inhibiting the growth” and the n_hit [1, 6] is reported as 8.

For `CCCc1nc2c(C)cc(-c3nc4ccccc4n3C)cc2n1Cc1ccc(-c2ccccc2C(=O)O)cc1` [Telmisartan], the “inhibition of the growth of C. difficile bacteria (in words)” value [3] was “effective in inhibiting the growth” and the n_hit [1, 8] was 4.

`N[C@@H](Cc1cc(I)c(Oc2cc(I)c(O)c(I)c2)c(I)c1)C(=O)O` [Thyroxine (L)] was tested, and the n_hit [1, 6] was 3.

With `O=C(O)Cc1cc(I)c(Oc2ccc(O)c(I)c2)c(I)c1` [Tiratricol] the n_hit [1, 7] was 14.

In the case of `Cc1cccc(N(C)C(=S)Oc2ccc3ccccc3c2)c1` [Tolnaftate], the “selective inhibition of the growth of an enterotoxigenic strain of Bacteroides fragilis (in words)” value [4] is reported as “selectively inhibiting the growth” and the n_hit [1, 6] is reported as 5.

`Cc1cc(-n2c(=O)[nH]c(=O)n(C)c2=O)ccc1Oc1ccc(SC(F)(F)F)cc1` [Toltrazuril] was tested, and the “selective inhibition of the growth of an enterotoxigenic strain of Bacteroides fragilis (in words)” value [4] was “selectively inhibiting the growth” and the n_hit [1, 6] was 7.

With `CCOC1O[C@H]([C@@H](COCc2ccccc2)OCc2ccccc2)[C@H](OCc2ccccc2)[C@H]1O` (stereo partly drawn) [Tribenoside] the “inhibition of the growth of C. difficile bacteria (in words)” value [3] was “effective in inhibiting the growth” and the n_hit [1, 8] was 1.

`Cc1c(C)c2c(c(C)c1O)CCC(C)(COc1ccc(CC3SC(=O)NC3=O)cc1)O2` (stereo not drawn) [Troglitazone] showed a n_hit [1, 7] of 13.

For `O=C1Nc2ccc(Cl)cc2[C@@](C#CC2CC2)(C(F)(F)F)O1` [efavirenz], the “anticommensal activity in the screen (in words)” value [1] was “anticommensal activity”.

In the case of `CCOC(=O)Nc1ccc2c(c1)N(C(=O)CCN1CCOCC1)c1ccccc1S2` [moricizine], the “effect on growth curves (normalized OD/AUC) of Bacteroides ovatus (in words)” value [5] is reported as “a hit with partial but strong growth inhibition”.

`O=c1[nH]c(=O)n([C@H]2C[C@H](O)[C@@H](CO)O2)cc1C(F)(F)F` [trifluridine] was tested, and the “anticommensal activity in the screen (in words)” value [1] was “anticommensal activity”.

From US11766427B2, “Repurposing compounds for the treatment of infections and for modulating the composition of the gut microbiome” (EUROPEAN MOLECULAR BIOLOGY LABORATORY, priority 2018, dated 2023)
